Test results as given in patent publication US20240109879A1, “BENZIMIDAZOLE COMPOUND AND APPLICATION THEREOF” (Medshine Discovery Inc., priority 2020, published 2024).
pIC50: −log10 of the molar value. One block for each compound: values may come before it.

Experiments:
CBP = CBP (Homo sapiens (Human), UniProt Q92793); assay: Assay of CBP protein activity (HTRF, BRD with acetylated Histone H4 peptide ligand); type: binding
Procedure: (§1) Assay Example 1: Assay of p300 and CBP Protein Activity
(§2) Reaction buffer: 25 mM HEPES, pH 7.5, 25 mM NaCl, 0.025% CHAPS, 0.025% BSA, 0.5% DMSO.
(§3) Standard Reaction Conditions:
(§4) 5 nM p300-GST, 50 nM peptide ligand.
(§5) Reaction Procedure: • 1. 2.5×BRD was added to the wells of a reaction plate, except for control wells without BRD to which buffer was added instead. • 2. Compounds in 100% DMSO were delivered into the BRD mixture by acoustic technology (Echo550; nanoliter range). The plate was spun down. The mixture was incubated at room temperature for 30 min. • 3. 5×peptide ligand was delivered. The plate was spun down. The mixture was incubated at room temperature for 10 min. • 4. 5×HTRF detection mixture was delivered. The plate was spun down and the mixture was incubated in the dark for 2 h. • 5. A measurement of HTRF was performed with an Envision reader (Ex/Em=320/615, 665 nm). • 6. A HTRF ratio was calculated as follows: [em 665 nm/em 615 nm]*10000.
(§6) The background-subtracted signal (no protein as background) was converted to % bound relative to the DMSO control. Data were analyzed using GraphPad Prism 4 with “sigmoidal dose-response (variable slope)”; and a 4-parameter analysis was performed using Hill slope.
(§7) Constraints: • Bottom=Constant equal to 0 • Top=Must be less than 120

[1] = Pharmacokinetic study in CD-1 mice (intravenous injection and oral gavage); type: in vivo; conditions: male CD-1 mice
From the text: Assay Example 2: Pharmacokinetic Study of Compounds of the Present Disclosure
CD-1 mice (male, 5-6 weeks old, Shanghai Family Planning Research Institute)
Injection: To assay pharmacokinetic characteristics of rodents after intravenous injection administration of compounds by a standard protocol. In the assay, candidate compounds were formulated into clear solutions, and administered to mice as a single intravenous injection. The vehicle for the intravenous injection was a mixed vehicle formulated with 5% of dimethyl sulfoxide and 95% of 10% hydroxypropyl β-cyclodextrin. In this assay, two male CD-1 mice were used for intravenous injection administration at a dose of 0.5 mg/kg. Plasma samples were collected at 0.083, 0.25, 0.5, 1, 2, 4, 8 and 24 h after administration. Whole blood samples were collected within 24 hours, and centrifuged at 3000 g for 15 minutes. The supernatants were separated to obtain plasma samples. To the plasma samples was added 20 times volume of acetonitrile solution containing internal standard to precipitate protein. The mixtures were vortexed and centrifuged. The supernatants were taken for injection. Plasma drug concentration was quantitatively analyzed by LC-MS/MS analysis method, and pharmacokinetic parameters (such as clearance (CL), half-life (T1/2), […] (Vdss), area under the drug-time curve (AUC0-last), etc.) were calculated.
Oral: To assay pharmacokinetic characteristics of rodents after oral administration of compounds by a standard protocol. In the assay, candidate compounds were formulated into homogeneous opaque suspensions, and given to the mice for a single oral administration. The vehicle for the oral administration was a mixed vehicle formulated with 5% of dimethyl sulfoxide and 95% of 0.5% methylcellulose. In this assay, two male CD-1 mice were used for oral gavage administration at a dose of 3 mg/kg. Plasma samples were collected at 0.25, 0.5, 1, 2, 4, 8 and 24 h after administration. Whole blood samples were collected within 24 hours, and centrifuged at 3000 g for 15 minutes. The supernatants were separated to obtain plasma samples. To the plasma samples was added 20 times volume of acetonitrile solution containing internal standard to precipitate protein. The mixtures were vortexed and centrifuged. The supernatants were taken for injection. Plasma drug concentration was quantitatively analyzed by LC-MS/MS analysis method, and pharmacokinetic parameters (such as peak concentration (Cmax), half-life (T1/2), area under the drug-time curve (AUC0-last), etc.) were calculated.

p300 = p300 (Homo sapiens (Human), UniProt Q09472); assay: Assay of p300 protein activity (HTRF, p300-GST with Histone H4 (1-21) K5/8/12/16Ac-GG-Biotin peptide ligand); type: binding; conditions: 5 nM p300-GST, 50 nM peptide ligand
Chain of p300 (Q09472 1049-1156): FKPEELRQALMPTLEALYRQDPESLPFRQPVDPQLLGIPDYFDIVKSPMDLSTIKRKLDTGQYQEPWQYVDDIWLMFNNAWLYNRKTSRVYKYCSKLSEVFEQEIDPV
Procedure: as §1, §2, §3, §4, §5, §6, §7

Chain of CBP (Q92793 1085-1192): as the sequence (Q09472 1049-1156) above, with S47N, I73V, Y93F, S98A counted along it

Structure (SMILES): COC1CCC(n2c([C@@H]3C[C@H]4C[C@H]4C(=O)N3c3ccc(F)c(F)c3)nc3cc(-c4c(C)noc4C)ccc32)CC1 (single isomer, unassigned) [Compound 3B]
pIC50 (CBP): 9.17
Bioavailability F (%) ([1]; gavage 3 mg/kg vs intravenous 0.5 mg/kg): 64%
Area under curve (0-inf) AUC0-inf ([1]; gavage, 3 mg/kg): 2.606 µM·h
Area under curve (0-t) AUC0-last ([1]; gavage, 3 mg/kg): 2.577 µM·h
Time to peak Tmax ([1]; gavage, 3 mg/kg): 45 min
half-life T1/2 ([1]; gavage, 3 mg/kg): 67.2 min
Cmax ([1]; gavage, 3 mg/kg, read-out: Plasma drug concentration Cmax): 697 nM
Apparent distribution volume Vdss ([1]; intravenous, 0.5 mg/kg): 1.65 L/kg
Area under curve (0-inf) AUC0-inf ([1]; intravenous, 0.5 mg/kg): 0.676 µM·h
Area under curve (0-t) AUC0-last ([1]; intravenous, 0.5 mg/kg): 0.665 µM·h
Clearance Cl ([1]; intravenous, 0.5 mg/kg): 23.3 mL/min/kg
half-life T1/2 ([1]; intravenous, 0.5 mg/kg): 59.4 min
pIC50 (p300): 8.54

Structure (SMILES): COC1CCC(n2c([C@H]3C[C@@H]4C[C@@H]4C(=O)N3c3ccc(F)c(F)c3)nc3cc(-c4c(C)noc4C)ccc32)CC1 (single isomer, unassigned) [Compound 3C]
pIC50 (p300): 7.85

Structure (SMILES): Cc1noc(C)c1-c1ccc2c(c1)nc([C@H]1CCCC(=O)N1c1ccc(F)c(F)c1)n2C1CC2C(C1)C2(F)F (some centres unmarked) [Compound 2B]
pIC50 (CBP): 9.17
pIC50 (p300): 8.45

pIC50 (p300): 7.95
Structure (SMILES): COC1CCC(n2c([C@@H]3CN(C)C(=O)N3c3ccc(F)c(F)c3)nc3cc(-c4c(C)noc4C)ccc32)CC1 (some centres unmarked) [Compound 4A]
